Source: article PMC6128652, “Structure of the Cladosporium fulvum Avr4 effector in complex with (GlcNAc)6 reveals the ligand-binding mechanism and uncouples its intrinsic function from recognition by the Cf-4 resistance protein” (PLoS Pathogens, 2018)

Assays:
Settings in all cases: n = 3
[1] = target: T1, WT-CfAvr4 (Fulvia fulva, UniProt Q00363); experiment: Isothermal titration calorimetry, reverse titration with concentrated CfAvr4 titrated into dilute (GlcNAc)6, 10 mM Bis-Tris, pH 6.5, 100 mM NaCl; temperature not given.; format: binding
T1 construct: gene AVR4; true mature form Lys30-Gln115, N-terminal two 6x His tags and rhinovirus 3C site (tag retained, by contrast with the w/o tag row), E. coli Rosetta-gami B
T1 sequence (Q00363 30-115): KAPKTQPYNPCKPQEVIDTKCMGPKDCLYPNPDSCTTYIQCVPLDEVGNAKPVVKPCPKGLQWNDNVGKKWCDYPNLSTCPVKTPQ
Text: (§1) The parameters remained similar irrespectively of whether or not the purification tag was removed from the protein or whether a reverse titration was run, in which concentrated CfAvr4 was titrated into a dilute solution of (GlcNAc)6, with no evidence of allosteric or dimer dissociation (S2 Table and S6 Fig). The values are also in good agreement with previously reported data except for the stoichiometric ratio [9]. […] Due to this discrepancy, we took great care to verify the concentration of CfAvr4 using a Bradford assay, and quantitated the carbohydrate concentration.
All ITC experiments were performed on a TA Instruments low volume NanoITC with a 186uL reaction cell and a reference cell filled with degassed Milli-Q grade water. Reactions were run in a buffer containing 10mM Bis-Tris, pH 6.5, 100 mM NaCl. The reservoir solution was filled with protein solution and continuously stirred while Chitin hexasaccharide solutions titrated in 2.5μL aliquots for 19 injections, with an initial 1μL injection, for a total injection volume of 48.5μL. […] The integrated heats, after correction for the heat of dilution were analyzed using the NanoAnalyze software from ITC Technologies. […]

[2] = target: T2, M51A (Fulvia fulva, UniProt Q00363, M51A); experiment: Isothermal titration calorimetry, (GlcNAc)6 titrated into protein in 10 mM Bis-Tris, pH 6.5, 100 mM NaCl, individual binding site model; temperature not given.
T2 construct: gene AVR4; true mature form Lys30-Gln115, E. coli Rosetta-gami B
T2 sequence (Q00363 30-115 M51A): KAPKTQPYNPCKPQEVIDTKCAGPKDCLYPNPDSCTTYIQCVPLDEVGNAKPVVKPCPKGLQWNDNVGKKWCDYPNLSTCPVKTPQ
Procedure: (§2) All ITC experiments were performed on a TA Instruments low volume NanoITC with a 186uL reaction cell and a reference cell filled with degassed Milli-Q grade water. Reactions were run in a buffer containing 10mM Bis-Tris, pH 6.5, 100 mM NaCl. The reservoir solution was filled with protein solution and continuously stirred while Chitin hexasaccharide solutions titrated in 2.5μL aliquots for 19 injections, with an initial 1μL injection, for a total injection volume of 48.5μL. The carbohydrate solutions were made by dissolving the dry powder in buffer to a concentration of 20mM (confirmed using methods described above) and then diluted to the working concentration using the final buffer exchange flow through to match the buffers as closely as possible. The integrated heats, after correction for the heat of dilution were analyzed using the NanoAnalyze software from […]. An individual binding site model was used to fit the binding isotherm. All experiments were replicated a minimum of three times.
as §1
(§3) A stock solution of the monomer of N-acetylglucosamine was prepared by dissolving the dry powder in a buffer containing 10 mM Bis-Tris, pH 6.5, 100 mM NaCl to a concentration of 0.100 g/L using analytic techniques. Standard solution of 0, 0.010, 0.025, 0.050, 0.075 g/L were prepared by serial dilutions. Using glass test tubes and pipets, 100 μL of each standard was mixed with 300μL of concentrated sulfuric acid and vortexed for 10 sec to mix. Solutions were incubated at RT for 10 min and then placed on ice to stop the reaction. […] Analytically prepared solution of the di- and tri-saccharide scaled linearly to the calibration curve. To determine the concentration of the chitin hexasaccharide solutions used in ITC, the solutions were diluted into the dynamic range of the calibration curve (S12 Fig) and subjected to the above procedure.

[3] = target: T3, N93A (Fulvia fulva, UniProt Q00363, N93A); experiment: as above
T3 construct: gene AVR4; true mature form Lys30-Gln115, E. coli Rosetta-gami B
T3 sequence (Q00363 30-115 N93A): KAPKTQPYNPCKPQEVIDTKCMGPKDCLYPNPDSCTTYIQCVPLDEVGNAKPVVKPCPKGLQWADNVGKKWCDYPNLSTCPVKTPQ
Procedure: as §2, §1, §3

[4] = target: T4, WT-CfAvr4 w/o tag (Fulvia fulva, UniProt Q00363); experiment: as above
T4 construct: gene AVR4; true mature form Lys30-Gln115, purification tag removed with rhinovirus 3C protease, E. coli Rosetta-gami B
T4 sequence (Q00363 30-115): as the sequence (Q00363 30-115) above
Procedure: as §2, §1, §3

[5] = target: T5, Y103F (Fulvia fulva, UniProt Q00363, Y103F); experiment: as above
T5 construct: gene AVR4; true mature form Lys30-Gln115, E. coli Rosetta-gami B
T5 sequence (Q00363 30-115 Y103F): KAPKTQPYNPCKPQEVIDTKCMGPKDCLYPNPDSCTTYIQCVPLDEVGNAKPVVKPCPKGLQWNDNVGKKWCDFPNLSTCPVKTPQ
Procedure: as §2, §1, §3

[6] = target: T6, P87A (Fulvia fulva, UniProt Q00363, P87A); experiment: as above
T6 construct: gene AVR4; true mature form Lys30-Gln115, E. coli Rosetta-gami B
T6 sequence (Q00363 30-115 P87A): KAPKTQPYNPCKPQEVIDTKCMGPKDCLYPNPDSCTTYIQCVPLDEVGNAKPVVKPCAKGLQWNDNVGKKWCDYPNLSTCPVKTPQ
Procedure: as §2, §1, §3

[7] = target: T7, Q69N (Fulvia fulva, UniProt Q00363, Q69N); experiment: as above
T7 construct: gene AVR4; true mature form Lys30-Gln115, E. coli Rosetta-gami B
T7 sequence (Q00363 30-115 Q69N): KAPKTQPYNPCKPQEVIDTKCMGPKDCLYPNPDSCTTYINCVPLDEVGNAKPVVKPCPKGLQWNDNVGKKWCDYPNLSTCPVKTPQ
Procedure: as §2, §1, §3

[8] = target: T8, D94A (Fulvia fulva, UniProt Q00363, D94A); experiment: as above
T8 construct: gene AVR4; true mature form Lys30-Gln115, E. coli Rosetta-gami B
T8 sequence (Q00363 30-115 D94A): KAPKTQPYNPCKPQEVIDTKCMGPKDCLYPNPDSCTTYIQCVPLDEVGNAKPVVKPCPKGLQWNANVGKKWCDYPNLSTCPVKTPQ
Procedure: as §2, §1, §3

[9] = target: T1, WT-CfAvr4; experiment: as above
Procedure: as §2, §1, §3

[10] = target: T9, K84A (Fulvia fulva, UniProt Q00363, K84A); experiment: as above
T9 construct: gene AVR4; true mature form Lys30-Gln115, E. coli Rosetta-gami B
T9 sequence (Q00363 30-115 K84A): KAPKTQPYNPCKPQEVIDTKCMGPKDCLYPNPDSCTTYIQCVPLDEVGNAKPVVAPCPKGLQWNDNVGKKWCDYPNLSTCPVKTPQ
Procedure: as §2, §1, §3

[11] = target: T10, N95A (Fulvia fulva, UniProt Q00363, N95A); experiment: as above
T10 construct: gene AVR4; true mature form Lys30-Gln115, E. coli Rosetta-gami B
T10 sequence (Q00363 30-115 N95A): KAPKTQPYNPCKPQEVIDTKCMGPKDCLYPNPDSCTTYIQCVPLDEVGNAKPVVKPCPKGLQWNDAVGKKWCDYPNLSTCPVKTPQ
Procedure: as §2, §1, §3

[12] = target: T11, Y67F (Fulvia fulva, UniProt Q00363, Y67F); experiment: as above
T11 construct: gene AVR4; true mature form Lys30-Gln115, E. coli Rosetta-gami B
T11 sequence (Q00363 30-115 Y67F): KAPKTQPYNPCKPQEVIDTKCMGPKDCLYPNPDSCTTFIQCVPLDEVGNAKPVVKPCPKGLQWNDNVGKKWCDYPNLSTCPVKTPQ
Procedure: as §2, §1, §3

[13] = target: T12, P53A (Fulvia fulva, UniProt Q00363, P53A); experiment: as above
T12 construct: gene AVR4; true mature form Lys30-Gln115, E. coli Rosetta-gami B
T12 sequence (Q00363 30-115 P53A): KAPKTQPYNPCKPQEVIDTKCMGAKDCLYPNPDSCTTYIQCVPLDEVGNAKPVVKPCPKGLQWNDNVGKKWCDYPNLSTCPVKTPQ
Procedure: as §2, §1, §3

How did the Kd [1] turn out when `CC(=O)N[C@H]1[C@H](O[C@H]2[C@H](O)[C@@H](NC(C)=O)[C@H](O[C@H]3[C@H](O)[C@@H](NC(C)=O)C(O)O[C@@H]3CO)O[C@@H]2CO)O[C@H](CO)[C@@H](O[C@@H]2O[C@H](CO)[C@@H](O[C@@H]3O[C@H](CO)[C@@H](O[C@@H]4O[C@H](CO)[C@@H](O)[C@H](O)[C@H]4NC(C)=O)[C@H](O)[C@H]3NC(C)=O)[C@H](O)[C@H]2NC(C)=O)[C@@H]1O` (stereo partly drawn) [(GlcNAc)6, chitohexaose (chitin hexasaccharide, beta-1,4-linked N-acetylglucosamine hexamer)] was run?
The Kd was 7.16 µM.

And the Kd [2]?
Its Kd is 9.2 µM.

What about the Kd [3] of the same molecule?
Its Kd is 44.7 µM.

And the Kd [4]?
The Kd was 6.73 µM.

And the Kd [5]?
The Kd was 12.2 µM.

What about the Kd [6] of the same molecule?
Its Kd is 17.9 µM.

And the Kd [7]?
The Kd was 131 µM.

What about the Kd [8] of the same molecule?
The Kd was 37.6 µM.

What about the Kd [9] of the same molecule?
Its Kd is 7.63 µM.

And the Kd [10]?
Its Kd is 121 µM.

What about the Kd [11] of the same molecule?
Its Kd is 18.8 µM.

And the Kd [12]?
Its Kd is 6.86 µM.

And the Kd [13]?
The Kd was 11.3 µM.
